Source: US20110039721A1, “METHOD FOR PREDICTION ABOUT CARCINOGENICITY OF SUBSTANCE IN RODENT” (Chemicals Evaluation and Research Institute, priority 2007, published 2011)

Tests used:
liver = settings: classification of the substance (Cr+/Cr−); cited from earlier work
rodent = settings: classification of the substance (C+/C−); cited from earlier work
[1] = classification of the substance (M+/M−); cited from earlier work
[2] = tested on: mRNA expressed from the genes (A) to (D) in rat liver; experiment: Behavior of genes (mRNA expression level, oligo-DNA microarray) in rat liver after 28-day oral administration; format: in vivo; settings: for Behavior of gene caused by administration of chemical substance, Gene No. 4846 / Behavior of gene caused by administration of chemical substance, Gene No. 2026 / Behavior of gene caused by administration of chemical substance, Gene No. 4218 / Behavior of gene caused by administration of chemical substance, Gene No. 6182 / Behavior of gene caused by administration of chemical substance, Gene No. 5600: gene group (A); for Behavior of gene caused by administration of chemical substance, Gene No. 4846: Unigene No. Rn.144554; for Behavior of gene caused by administration of chemical substance, Gene No. 2026 / Behavior of gene caused by administration of chemical substance, Gene No. 4218: Unigene No. Rn.167075; for Behavior of gene caused by administration of chemical substance, Gene No. 6182: Unigene No. Rn.5834; for Behavior of gene caused by administration of chemical substance, Gene No. 5600: Unigene No. Rn.9836; for Behavior of gene caused by administration of chemical substance, Gene No. 1494 / Behavior of gene caused by administration of chemical substance, Gene No. 2045 / Behavior of gene caused by administration of chemical substance, Gene No. 2203: gene group (B); for Behavior of gene caused by administration of chemical substance, Gene No. 1494: Unigene No. Rn.1430; for Behavior of gene caused by administration of chemical substance, Gene No. 2045: Unigene No. Rn.19329; for Behavior of gene caused by administration of chemical substance, Gene No. 2203: Unigene No. Rn.21240; for Behavior of gene caused by administration of chemical substance, Gene No. 533 / Behavior of gene caused by administration of chemical substance, Gene No. 725 / Behavior of gene caused by administration of chemical substance, Gene No. 1163 / Behavior of gene caused by administration of chemical substance, Gene No. 4973 / Behavior of gene caused by administration of chemical substance, Gene No. 4095 / Behavior of gene caused by administration of chemical substance, Gene No. 1334 / Behavior of gene caused by administration of chemical substance, Gene No. 6620 / Behavior of gene caused by administration of chemical substance, Gene No. 6303 / Behavior of gene caused by administration of chemical substance, Gene No. 5878 / Behavior of gene caused by administration of chemical substance, Gene No. 1131 / Behavior of gene caused by administration of chemical substance, Gene No. 1562 / Behavior of gene caused by administration of chemical substance, Gene No. 1741 / Behavior of gene caused by administration of chemical substance, Gene No. 893 / Behavior of gene caused by administration of chemical substance, Gene No. 6026 / Behavior of gene caused by administration of chemical substance, Gene No. 154 / Behavior of gene caused by administration of chemical substance, Gene No. 1993 / Behavior of gene caused by administration of chemical substance, Gene No. 813 / Behavior of gene caused by administration of chemical substance, Gene No. 2494 / Behavior of gene caused by administration of chemical substance, Gene No. 2546 / Behavior of gene caused by administration of chemical substance, Gene No. 3776 / Behavior of gene caused by administration of chemical substance, Gene No. 3929 / Behavior of gene caused by administration of chemical substance, Gene No. 1119 / Behavior of gene caused by administration of chemical substance, Gene No. 6742 / Behavior of gene caused by administration of chemical substance, Gene No. 5634: gene group (C); for Behavior of gene caused by administration of chemical substance, Gene No. 533: Unigene No. Rn.106184; for Behavior of gene caused by administration of chemical substance, Gene No. 725: Unigene No. Rn.108075; for Behavior of gene caused by administration of chemical substance, Gene No. 1163: Unigene No. Rn.11766; for Behavior of gene caused by administration of chemical substance, Gene No. 4973: Unigene No. Rn.118529; for Behavior of gene caused by administration of chemical substance, Gene No. 4095: Unigene No. Rn.119024; for Behavior of gene caused by administration of chemical substance, Gene No. 1334 / Behavior of gene caused by administration of chemical substance, Gene No. 6620: Unigene No. Rn.120914; for Behavior of gene caused by administration of chemical substance, Gene No. 6303: Unigene No. Rn.123063; for Behavior of gene caused by administration of chemical substance, Gene No. 5878: Unigene No. Rn.143213; for Behavior of gene caused by administration of chemical substance, Gene No. 1131: Unigene No. Rn.144946; for Behavior of gene caused by administration of chemical substance, Gene No. 1562: Unigene No. Rn.14744; for Behavior of gene caused by administration of chemical substance, Gene No. 1741: Unigene No. Rn.1647; for Behavior of gene caused by administration of chemical substance, Gene No. 893: Unigene No. Rn.164817; for Behavior of gene caused by administration of chemical substance, Gene No. 6026: Unigene No. Rn.167685; for Behavior of gene caused by administration of chemical substance, Gene No. 154: Unigene No. Rn.185941; for Behavior of gene caused by administration of chemical substance, Gene No. 1993: Unigene No. Rn.18728; for Behavior of gene caused by administration of chemical substance, Gene No. 813: Unigene No. Rn.201760; for Behavior of gene caused by administration of chemical substance, Gene No. 2494: Unigene No. Rn.23969; for Behavior of gene caused by administration of chemical substance, Gene No. 2546: Unigene No. Rn.24561; for Behavior of gene caused by administration of chemical substance, Gene No. 3776: Unigene No. Rn.43232; for Behavior of gene caused by administration of chemical substance, Gene No. 3929: Unigene No. Rn.4620; for Behavior of gene caused by administration of chemical substance, Gene No. 1119: Unigene No. Rn.9757; for Behavior of gene caused by administration of chemical substance, Gene No. 6742: Unigene No. Rn.9779; for Behavior of gene caused by administration of chemical substance, Gene No. 5634: Unigene No. Rn.9862; for Behavior of gene caused by administration of chemical substance, Gene No. 5726: gene group (D), Unigene No. Rn.9939
Method in brief: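 Male F344 SPF rats, 5 weeks old, four per group, dosed by oral gavage once daily for 28 days with test chemical or matched-volume solvent. Liver total RNA profiled on oligo-DNA microarray. Change ≥1.5-fold or ≤1/1.5 versus vehicle counted as significant if its direction matched that seen with other carcinogens.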

SMILES	Liver carcinogenicity (liver)	Carcinogenicity (rodent)	Mutagenicity by Ames test [1]	Behavior of gene caused by administration of chemical substance, Gene No. 4846 [2]	Behavior of gene caused by administration of chemical substance, Gene No. 2026 [2]	Behavior of gene caused by administration of chemical substance, Gene No. 4218 [2]	Behavior of gene caused by administration of chemical substance, Gene No. 6182 [2]	Behavior of gene caused by administration of chemical substance, Gene No. 5600 [2]	Behavior of gene caused by administration of chemical substance, Gene No. 1494 [2]	Behavior of gene caused by administration of chemical substance, Gene No. 2045 [2]	Behavior of gene caused by administration of chemical substance, Gene No. 2203 [2]	Behavior of gene caused by administration of chemical substance, Gene No. 533 [2]	Behavior of gene caused by administration of chemical substance, Gene No. 725 [2]	Behavior of gene caused by administration of chemical substance, Gene No. 1163 [2]	Behavior of gene caused by administration of chemical substance, Gene No. 4973 [2]	Behavior of gene caused by administration of chemical substance, Gene No. 4095 [2]	Behavior of gene caused by administration of chemical substance, Gene No. 1334 [2]	Behavior of gene caused by administration of chemical substance, Gene No. 6620 [2]	Behavior of gene caused by administration of chemical substance, Gene No. 6303 [2]	Behavior of gene caused by administration of chemical substance, Gene No. 5878 [2]	further results
ClC(Cl)(Cl)Cl [TS003, Carbon tetrachloride]	Cr+	C+	M−	+	+	+	+	+	+	+	+	+	−	+	+	−	−	−	−	−	Behavior of gene caused by administration of chemical substance, Gene No. 1131 [2]: −; Behavior of gene caused by administration of chemical substance, Gene No. 1562 [2]: −; Behavior of gene caused by administration of chemical substance, Gene No. 1741 [2]: +; Behavior of gene caused by administration of chemical substance, Gene No. 893 [2]: −; Behavior of gene caused by administration of chemical substance, Gene No. 6026 [2]: −; Behavior of gene caused by administration of chemical substance, Gene No. 154 [2]: +; Behavior of gene caused by administration of chemical substance, Gene No. 1993 [2]: −; Behavior of gene caused by administration of chemical substance, Gene No. 813 [2]: −; Behavior of gene caused by administration of chemical substance, Gene No. 2494 [2]: −; Behavior of gene caused by administration of chemical substance, Gene No. 2546 [2]: −; Behavior of gene caused by administration of chemical substance, Gene No. 3776 [2]: −; Behavior of gene caused by administration of chemical substance, Gene No. 3929 [2]: −; Behavior of gene caused by administration of chemical substance, Gene No. 1119 [2]: −; Behavior of gene caused by administration of chemical substance, Gene No. 6742 [2]: −; Behavior of gene caused by administration of chemical substance, Gene No. 5634 [2]: −; Behavior of gene caused by administration of chemical substance, Gene No. 5726 [2]: −
OC[C@@H](O)[C@@H](O)[C@H](O)[C@H](O)CO [TS009, D-Mannitol]	Cr−	C−	M−	−	−	−	−	−	−	−	−	−	−	−	−	−	−	−	−	−	Behavior of gene caused by administration of chemical substance, Gene No. 1131 [2]: −; Behavior of gene caused by administration of chemical substance, Gene No. 1562 [2]: −; Behavior of gene caused by administration of chemical substance, Gene No. 1741 [2]: −; Behavior of gene caused by administration of chemical substance, Gene No. 893 [2]: −; Behavior of gene caused by administration of chemical substance, Gene No. 6026 [2]: −; Behavior of gene caused by administration of chemical substance, Gene No. 154 [2]: −; Behavior of gene caused by administration of chemical substance, Gene No. 1993 [2]: −; Behavior of gene caused by administration of chemical substance, Gene No. 813 [2]: −; Behavior of gene caused by administration of chemical substance, Gene No. 2494 [2]: −; Behavior of gene caused by administration of chemical substance, Gene No. 2546 [2]: −; Behavior of gene caused by administration of chemical substance, Gene No. 3776 [2]: −; Behavior of gene caused by administration of chemical substance, Gene No. 3929 [2]: −; Behavior of gene caused by administration of chemical substance, Gene No. 1119 [2]: −; Behavior of gene caused by administration of chemical substance, Gene No. 6742 [2]: −; Behavior of gene caused by administration of chemical substance, Gene No. 5634 [2]: −; Behavior of gene caused by administration of chemical substance, Gene No. 5726 [2]: −
